Measurements taken from PubChem BioAssay (NCI).
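The compound was tested at five concentrations on cells cultured in 96-well plates, with a 48-hour exposure period. The concentration for full growth arrest is given as TGI.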

Tests used:
Test in all cases: growth of human tumour cells (NCI), 48 h
NCI-H460 lung = tested on: NCI-H460 lung
UACC-62 melanoma = tested on: UACC-62 melanoma
UO-31 renal = tested on: UO-31 renal
SK-MEL-2 melanoma = tested on: SK-MEL-2 melanoma
MDA-MB-231 breast = tested on: MDA-MB-231 breast
T-47D breast = tested on: T-47D breast
MCF7 breast = tested on: MCF7 breast
OVCAR-8 ovarian = tested on: OVCAR-8 ovarian
EKVX NSCLC = tested on: EKVX NSCLC
ACHN renal = tested on: ACHN renal
HT29 colon = tested on: HT29 colon
OVCAR-4 ovarian = tested on: OVCAR-4 ovarian
SF-268 CNS = tested on: SF-268 CNS
NCI-H522 lung = tested on: NCI-H522 lung
UACC-257 melanoma = tested on: UACC-257 melanoma
RPMI-8226 leukemia = tested on: RPMI-8226 leukemia
HOP-92 NSCLC = tested on: HOP-92 NSCLC
SF-295 CNS = tested on: SF-295 CNS
786-0 renal = tested on: 786-0 renal
LOX IMVI melanoma = tested on: LOX IMVI melanoma
MALME-3M melanoma = tested on: MALME-3M melanoma
DU-145 prostate = tested on: DU-145 prostate
K-562 leukemia = tested on: K-562 leukemia
HCC-2998 colon = tested on: HCC-2998 colon
NCI/ADR-RES ovarian = tested on: NCI/ADR-RES ovarian
HCT-15 colon = tested on: HCT-15 colon
MDA-MB-435 = tested on: MDA-MB-435
PC-3 prostate = tested on: PC-3 prostate
OVCAR-5 ovarian = tested on: OVCAR-5 ovarian
KM12 colon = tested on: KM12 colon
SK-MEL-5 melanoma = tested on: SK-MEL-5 melanoma
SW-620 colon = tested on: SW-620 colon
TK-10 renal = tested on: TK-10 renal
SNB-75 CNS = tested on: SNB-75 CNS
IGROV1 ovarian = tested on: IGROV1 ovarian
COLO 205 colon = tested on: COLO 205 colon
SK-OV-3 ovarian = tested on: SK-OV-3 ovarian
SN12C renal = tested on: SN12C renal
MDA-N = tested on: MDA-N
M14 melanoma = tested on: M14 melanoma
NCI-H226 lung = tested on: NCI-H226 lung
HS 578T breast = tested on: HS 578T breast
NCI-H23 lung = tested on: NCI-H23 lung
HOP-62 NSCLC = tested on: HOP-62 NSCLC
SNB-19 CNS = tested on: SNB-19 CNS
U251 CNS = tested on: U251 CNS
RXF 393 renal = tested on: RXF 393 renal
CCRF-CEM leukemia = tested on: CCRF-CEM leukemia
OVCAR-3 ovarian = tested on: OVCAR-3 ovarian
SR leukemia = tested on: SR leukemia
SF-539 CNS = tested on: SF-539 CNS
SK-MEL-28 melanoma = tested on: SK-MEL-28 melanoma
MOLT-4 leukemia = tested on: MOLT-4 leukemia
A549 NSCLC = tested on: A549 NSCLC
HCT-116 colon = tested on: HCT-116 colon
A498 renal = tested on: A498 renal
CAKI-1 renal = tested on: CAKI-1 renal
HL-60(TB) leukemia = tested on: HL-60(TB) leukemia

C=CC1(c2ccc(-c3ccccc3)cc2)OCCO1
TGI (NCI-H460 lung): > 100 µM | TGI (UACC-62 melanoma): 89.1 µM | TGI (UO-31 renal): > 100 µM | TGI (SK-MEL-2 melanoma): 53.7 µM | TGI (MDA-MB-231 breast): > 100 µM | TGI (T-47D breast): > 100 µM | TGI (MCF7 breast): > 100 µM | TGI (OVCAR-8 ovarian): > 100 µM | TGI (EKVX NSCLC): > 100 µM | TGI (ACHN renal): > 100 µM | TGI (HT29 colon): 81.2 µM | TGI (OVCAR-4 ovarian): > 100 µM | TGI (SF-268 CNS): > 100 µM | TGI (NCI-H522 lung): > 100 µM | TGI (UACC-257 melanoma): > 100 µM | TGI (RPMI-8226 leukemia): > 100 µM | TGI (HOP-92 NSCLC): 87.1 µM | TGI (SF-295 CNS): > 100 µM | TGI (786-0 renal): > 100 µM | TGI (LOX IMVI melanoma): > 100 µM | TGI (MALME-3M melanoma): > 100 µM | TGI (DU-145 prostate): > 100 µM | TGI (K-562 leukemia): 61.9 µM | TGI (HCC-2998 colon): > 100 µM | TGI (NCI/ADR-RES ovarian): > 100 µM | TGI (HCT-15 colon): > 100 µM | TGI (MDA-MB-435): > 100 µM | TGI (PC-3 prostate): > 100 µM | TGI (OVCAR-5 ovarian): > 100 µM | TGI (KM12 colon): > 100 µM | TGI (SK-MEL-5 melanoma): > 100 µM | TGI (SW-620 colon): > 100 µM | TGI (TK-10 renal): > 100 µM | TGI (SNB-75 CNS): > 100 µM | TGI (IGROV1 ovarian): > 100 µM | TGI (COLO 205 colon): > 100 µM | TGI (SK-OV-3 ovarian): > 100 µM | TGI (SN12C renal): > 100 µM | TGI (MDA-N): > 100 µM | TGI (M14 melanoma): > 100 µM | TGI (NCI-H226 lung): 64.1 µM | TGI (HS 578T breast): 69 µM | TGI (NCI-H23 lung): 89.8 µM | TGI (HOP-62 NSCLC): > 100 µM | TGI (SNB-19 CNS): > 100 µM | TGI (U251 CNS): > 100 µM | TGI (RXF 393 renal): 88.6 µM | TGI (CCRF-CEM leukemia): 86.4 µM | TGI (OVCAR-3 ovarian): > 100 µM | TGI (SR leukemia): 84.6 µM | TGI (SF-539 CNS): > 100 µM | TGI (SK-MEL-28 melanoma): > 100 µM | TGI (MOLT-4 leukemia): > 100 µM | TGI (A549 NSCLC): > 100 µM | TGI (HCT-116 colon): > 100 µM

COP(=O)(OC)/C(=C/c1cn(C(C)=O)c2ccccc12)NC(C)=O
TGI (NCI-H460 lung): > 100 µM | TGI (A498 renal): 94.3 µM | TGI (SK-MEL-2 melanoma): > 100 µM | TGI (MDA-MB-231 breast): > 100 µM | TGI (T-47D breast): > 100 µM | TGI (MCF7 breast): > 100 µM | TGI (OVCAR-8 ovarian): > 100 µM | TGI (ACHN renal): > 100 µM | TGI (HT29 colon): > 100 µM | TGI (OVCAR-4 ovarian): > 100 µM | TGI (NCI-H522 lung): > 100 µM | TGI (UACC-257 melanoma): > 100 µM | TGI (RPMI-8226 leukemia): 45.3 µM | TGI (SF-295 CNS): > 100 µM | TGI (LOX IMVI melanoma): 41.9 µM | TGI (DU-145 prostate): > 100 µM | TGI (K-562 leukemia): > 100 µM | TGI (NCI/ADR-RES ovarian): > 100 µM | TGI (HCT-15 colon): 66.4 µM | TGI (MDA-MB-435): > 100 µM | TGI (PC-3 prostate): > 100 µM | TGI (OVCAR-5 ovarian): > 100 µM | TGI (SK-MEL-5 melanoma): > 100 µM | TGI (SW-620 colon): > 100 µM | TGI (CAKI-1 renal): > 100 µM | TGI (TK-10 renal): > 100 µM | TGI (SNB-75 CNS): > 100 µM | TGI (IGROV1 ovarian): > 100 µM | TGI (COLO 205 colon): > 100 µM | TGI (SK-OV-3 ovarian): > 100 µM | TGI (SN12C renal): > 100 µM | TGI (MDA-N): 36.3 µM | TGI (M14 melanoma): > 100 µM | TGI (HS 578T breast): > 100 µM | TGI (NCI-H23 lung): > 100 µM | TGI (HOP-62 NSCLC): > 100 µM | TGI (U251 CNS): > 100 µM | TGI (CCRF-CEM leukemia): 58.3 µM | TGI (OVCAR-3 ovarian): 66.2 µM | TGI (SR leukemia): > 100 µM | TGI (SK-MEL-28 melanoma): > 100 µM | TGI (A549 NSCLC): > 100 µM | TGI (HCT-116 colon): > 100 µM | TGI (HL-60(TB) leukemia): 42.6 µM

CC(C)CC(NC(=O)C(Cc1ccccc1)NC(=O)[C@H]1CC[C@H](NC(=O)C(Cc2ccc(OC(C)(C)C)cc2)NC(=O)OC(C)(C)C)C1)C(N)=O (stereo partly specified)
TGI (NCI-H460 lung): 39.7 µM | TGI (A498 renal): > 100 µM | TGI (UACC-62 melanoma): 41.8 µM | TGI (UO-31 renal): > 100 µM | TGI (SK-MEL-2 melanoma): 34.8 µM | TGI (MDA-MB-231 breast): 97 µM | TGI (T-47D breast): 46.9 µM | TGI (MCF7 breast): 31.9 µM | TGI (OVCAR-8 ovarian): 36 µM | TGI (EKVX NSCLC): > 100 µM | TGI (ACHN renal): > 100 µM | TGI (HT29 colon): 46.2 µM | TGI (OVCAR-4 ovarian): > 100 µM | TGI (SF-268 CNS): > 100 µM | TGI (NCI-H522 lung): 33.7 µM | TGI (UACC-257 melanoma): 37 µM | TGI (RPMI-8226 leukemia): > 100 µM | TGI (HOP-92 NSCLC): 59 µM | TGI (SF-295 CNS): 83.5 µM | TGI (786-0 renal): > 100 µM | TGI (LOX IMVI melanoma): 35.1 µM | TGI (MALME-3M melanoma): 61 µM | TGI (K-562 leukemia): 47.9 µM | TGI (HCC-2998 colon): 27.5 µM | TGI (NCI/ADR-RES ovarian): > 100 µM | TGI (HCT-15 colon): 48.9 µM | TGI (MDA-MB-435): 41.2 µM | TGI (PC-3 prostate): 59.3 µM | TGI (OVCAR-5 ovarian): > 100 µM | TGI (KM12 colon): 44.1 µM | TGI (SK-MEL-5 melanoma): 20.1 µM | TGI (SW-620 colon): 94.3 µM | TGI (CAKI-1 renal): > 100 µM | TGI (TK-10 renal): 86.9 µM | TGI (SNB-75 CNS): > 100 µM | TGI (IGROV1 ovarian): 77.8 µM | TGI (COLO 205 colon): 35.8 µM | TGI (SK-OV-3 ovarian): > 100 µM | TGI (SN12C renal): 31.5 µM | TGI (MDA-N): 41.1 µM | TGI (M14 melanoma): 33.7 µM | TGI (NCI-H226 lung): 45.2 µM | TGI (HS 578T breast): 35.8 µM | TGI (NCI-H23 lung): 31.4 µM | TGI (HOP-62 NSCLC): > 100 µM | TGI (SNB-19 CNS): 53.9 µM | TGI (U251 CNS): 28.6 µM | TGI (RXF 393 renal): > 100 µM | TGI (CCRF-CEM leukemia): 43.3 µM | TGI (OVCAR-3 ovarian): 58 µM | TGI (SR leukemia): > 100 µM | TGI (SF-539 CNS): 42.6 µM | TGI (SK-MEL-28 melanoma): 51.5 µM | TGI (MOLT-4 leukemia): 53.6 µM | TGI (A549 NSCLC): > 100 µM | TGI (HCT-116 colon): 28.2 µM | TGI (HL-60(TB) leukemia): > 100 µM
